# Experiments:
# Format in all cases: functional
# [1] = tested on: Staphylococcus aureus; test: Antimicrobial activity against daptomycin-susceptible Staphylococcus aureus ATCC 29213 incubated anaerobically at 37 degC for 48 hrs by agar dilution method; conditions: ATCC 29213, 48 h
# [2] = tested on: Enterococcus faecalis; test: Antimicrobial activity against daptomycin-resistant Enterococcus faecalis ATCC 49452 incubated anaerobically at 37 degC for 48 hrs by agar dilution method; conditions: ATCC 49452, 48 h
# [3] = tested on: Clostridioides difficile; test: Antimicrobial activity against daptomycin-resistant Clostridium difficile NAP1 incubated anaerobically at 37 degC for 48 hrs by agar dilution method; conditions: NAP1, 48 h
# [4] = tested on: Clostridioides difficile; test: Antimicrobial activity against daptomycin-resistant Clostridium difficile ATCC 43596 infected in Syrian golden hamster model of Clostridium difficile-associated diarrhea assessed as protection against microbial infection by measuring survival at day 25 to 26 at 0.5 mg/kg treated once daily for 5 consecutive days starting 4 hrs after spore inoculation
# [5] = tested on: Enterococcus faecium; test: Antimicrobial activity against daptomycin-resistant Enterococcus faecium ATCC 6569 incubated anaerobically at 37 degC for 48 hrs by agar dilution method; conditions: ATCC 6569, 48 h
Structure (SMILES),MIC [1],MIC [2],MIC [3],survival at 0.5 mg/kg [4],MIC [5]
CCCCC[C@H]1CC[C@H](C(=O)N[C@@H](Cc2c[nH]c3ccccc23)C(=O)N[C@@H](CC(N)=O)C(=O)N[C@@H](CC(=O)O)C(=O)N[C@@H]2C(=O)NCC(=O)N[C@@H](CCCN)C(=O)N[C@H](CC(=O)O)C(=O)N[C@H](C)C(=O)N[C@@H](CC(=O)O)C(=O)NCC(=O)N[C@H](CO)C(=O)N[C@@H]([C@@H](C)CC(=O)O)C(=O)N[C@@H](CC(=O)c3ccccc3N)C(=O)O[C@@H]2C)CC1,0.5 µg/mL,> 32 µg/mL,0.5 µg/mL,60%,16 µg/mL
CCCCCC12CCC(C(=O)N[C@@H](Cc3c[nH]c4ccccc34)C(=O)N[C@@H](CC(N)=O)C(=O)N[C@@H](CC(=O)O)C(=O)N[C@@H]3C(=O)NCC(=O)N[C@@H](CCCN)C(=O)N[C@H](CC(=O)O)C(=O)N[C@H](C)C(=O)N[C@@H](CC(=O)O)C(=O)NCC(=O)N[C@H](CO)C(=O)N[C@@H]([C@@H](C)CC(=O)O)C(=O)N[C@@H](CC(=O)c4ccccc4N)C(=O)O[C@@H]3C)(CC1)CC2,0.25 µg/mL,32 µg/mL,1 µg/mL,60%,16 µg/mL
CCCCCCCc1ccc(C(=O)N[C@@H](Cc2c[nH]c3ccccc23)C(=O)N[C@@H](CC(N)=O)C(=O)N[C@@H](CC(=O)O)C(=O)N[C@@H]2C(=O)NCC(=O)N[C@@H](CCCN)C(=O)N[C@H](CC(=O)O)C(=O)N[C@H](C)C(=O)N[C@@H](CC(=O)O)C(=O)NCC(=O)N[C@H](CO)C(=O)N[C@@H]([C@@H](C)CC(=O)O)C(=O)N[C@@H](CC(=O)c3ccccc3N)C(=O)O[C@@H]2C)cc1,0.25 µg/mL,8 µg/mL,0.5 µg/mL,80%,4 µg/mL
CCCCCCCCc1ccc(C(=O)N[C@@H](Cc2c[nH]c3ccccc23)C(=O)N[C@@H](CC(N)=O)C(=O)N[C@@H](CC(=O)O)C(=O)N[C@@H]2C(=O)NCC(=O)N[C@@H](CCCN)C(=O)N[C@H](CC(=O)O)C(=O)N[C@H](C)C(=O)N[C@@H](CC(=O)O)C(=O)NCC(=O)N[C@H](CO)C(=O)N[C@@H]([C@@H](C)CC(=O)O)C(=O)N[C@@H](CC(=O)c3ccccc3N)C(=O)O[C@@H]2C)cc1,0.5 µg/mL,8 µg/mL,1 µg/mL,20%,4 µg/mL
CCCCCCCc1csc(C(=O)N[C@@H](Cc2c[nH]c3ccccc23)C(=O)N[C@@H](CC(N)=O)C(=O)N[C@@H](CC(=O)O)C(=O)N[C@@H]2C(=O)NCC(=O)N[C@@H](CCCN)C(=O)N[C@H](CC(=O)O)C(=O)N[C@H](C)C(=O)N[C@@H](CC(=O)O)C(=O)NCC(=O)N[C@H](CO)C(=O)N[C@@H]([C@@H](C)CC(=O)O)C(=O)N[C@@H](CC(=O)c3ccccc3N)C(=O)O[C@@H]2C)c1,0.125 µg/mL,32 µg/mL,2 µg/mL,60%,16 µg/mL

# From ChEMBL document CHEMBL3576778, “Structure-Activity Relationship Studies of a Series of Semisynthetic Lipopeptides Leading to the Discovery of Surotomycin, a Novel Cyclic Lipopeptide Being Developed for the Treatment of Clostridium difficile-Associated Diarrhea” (J Med Chem, 2015)
